Measured values: patent US20200048183A1, “ANTIMICROBIAL AGENTS” (THE UNIVERSITY OF WARWICK, priority 2017, published 2020)
Converted amounts (≈) assume the structure as drawn.

Test system: multi-drug resistant A. baumannii strains
Test: Minimum inhibitory concentration (MIC), broth microdilution method according to CLSI guidelines
Type: cell-based, Acinetobacter baumannii
Details: Acinetobacter baumannii, 18 h, read-out: MIC against A. baumannii
Method: MIC values for the compounds were determined using the broth microdilution method according to the official CLSI guidelines. Acinetobacter baumannii test strains were grown overnight in Mueller-Hinton (MH) broth at 37° C. In a 96-well microtiter plate, 50 μl of serial two-fold dilutions of an enacyloxin derivative in MH broth were mixed with 50 μl of bacterial suspension, diluted to a concentration of 10^6 CFU/ml in MH broth. The desired inoculum density was achieved using a 0.5 McFarland turbidity standard.

Q: For `CC/C=C/[C@@H](OC(N)=O)[C@@H](Cl)[C@H](O)CC(O)[C@@H](O)[C@H](O)[C@H](C)/C(Cl)=C/C=C/C=C(C)/C=C/C=C/C(=O)O[C@@H]1C[C@@H](C(=O)O)CC[C@@H]1O` (stereo in doubt) [Compound 8, 15-hydroxy-enacyloxin IIa], which MIC is on record?
A: Its MIC is 8 µg/mL (≈ 11.4 µM).

Q: How did the MIC turn out when `CC/C=C/[C@@H](OC(N)=O)[C@@H](Cl)[C@H](O)CC(=O)[C@@H](O)[C@H](O)[C@H](C)/C(Cl)=C/C=C/C=C(C)/C=C/C=C/C(=O)O[C@@H]1C[C@@H](C(=O)O)C[C@@H](O)[C@@H]1O` [Compound 4, 5′-hydroxy-enacyloxin IIa] was run?
A: The MIC was 16 µg/mL (≈ 22.3 µM).

Q: `CC/C=C/C(=O)C[C@H](O)CC(=O)[C@@H](O)[C@H](O)[C@H](C)/C(Cl)=C/C=C/C=C(C)/C=C/C=C/C(=O)O[C@@H]1C[C@@H](C(=O)O)CC[C@@H]1O` [Compound 10, 18-dechloro-decarbamoyl-enacyloxin IIa] was tested. Which MIC did it give?
A: The MIC was 32 µg/mL (≈ 51.4 µM).

Q: With `CC/C=C/[C@@H](OC(N)=O)[C@@H](Cl)[C@H](O)CC(=O)[C@@H](O)[C@H](O)[C@H](C)/C(Cl)=C/C=C/C=C(C)/C=C/C=C/C(=O)NCC(O)CC(=O)O` (stereo partly drawn) [Compound 23, enacyloxin-4-amino-3-hydroxybutyric acid conjugate] as the compound, how does the MIC read?
A: Its MIC is 64 µg/mL (≈ 96.7 µM).

Q: For `CC/C=C/[C@@H](O)[C@@H](Cl)[C@H](O)CC(O)[C@@H](O)[C@H](O)[C@H](C)/C(Br)=C/C=C/C=C(C)/C=C/C=C/C(=O)O[C@@H]1C[C@@H](C(=O)O)CC[C@@H]1O` (stereo partly drawn) [Compound 34], which MIC is on record?
A: The MIC was 2 µg/mL (≈ 2.83 µM).

Same assay, conditions: Acinetobacter baumannii; multi-drug resistant A. baumannii strains; broth microdilution in MH broth, 18 h at 37° C.; read-out: MIC against A. baumannii

Q: Which MIC does the source give for `CC/C=C/[C@@H](O)[C@@H](Cl)[C@H](O)CC(O)[C@@H](O)[C@H](O)[C@H](C)/C(Cl)=C/C=C/C=C(C)/C=C/C=C/C(=O)O[C@@H]1C[C@@H](C(=O)O)CC[C@@H]1O` (stereo in doubt) [Compound 9, 15-hydroxy-decarbamoyl enacyloxin IIa] here?
A: The MIC was 1 µg/mL (≈ 1.51 µM).

Q: With `CC/C=C/[C@@H](OC(N)=O)[C@@H](Cl)[C@H](O)CC(=O)C[C@H](O)[C@H](C)/C(Cl)=C/C=C/C=C(C)/C=C/C=C/C(=O)O[C@@H]1C[C@@H](C(=O)O)CC[C@@H]1O` [Compound 1, 14-dehydroxy-enacyloxin IIa] as the compound, how does the MIC read?
A: Its MIC is 2 µg/mL (≈ 2.91 µM).

Q: `CC/C=C/C1OC(O)([C@@H](O)[C@H](O)[C@H](C)/C(Cl)=C/C=C/C=C(C)/C=C/C=C/C(=O)O[C@@H]2C[C@@H](C(=O)O)CC[C@@H]2O)CC(O)C1Cl` (stereo partly drawn) [Compound 3, decarbamoyl-enacyloxin IIa] was tested. Which MIC did it give?
A: Its MIC is 4 µg/mL (≈ 6.06 µM).

Q: How did the MIC turn out when `CC/C=C/C1OC(O)(C[C@H](O)[C@H](C)/C(Cl)=C/C=C/C=C(C)/C=C/C=C/C(=O)O[C@@H]2C[C@@H](C(=O)O)CC[C@@H]2O)CC(O)C1Cl` (stereo partly drawn) [Compound 5, 14-dehydroxy-18-decarbamoyl-enacyloxin IIa] was run?
A: The MIC was 8 µg/mL (≈ 12.4 µM).

Q: With `CC/C=C/[C@H](C[C@H](O)CC(=O)C[C@H](O)[C@H](C)/C(Cl)=C/C=C/C=C(C)/C=C/C=C/C(=O)O[C@@H]1C[C@@H](C(=O)O)CC[C@@H]1O)OC(N)=O` [Compound 6, 14-dehydroxy-18-dechloro-enacyloxin IIa] as the compound, how does the MIC read?
A: Its MIC is 8 µg/mL (≈ 12.3 µM).

Q: `CC/C=C/[C@@H](OC(N)=O)[C@@H](Cl)[C@H](O)CC(=O)[C@@H](O)[C@H](O)[C@H](C)/C=C/C=C/C=C(C)/C=C/C=C/C(=O)O[C@@H]1C[C@@H](C(=O)O)CC[C@@H]1O` [Compound 7, 11-dechloro-enacyloxin IIa] was tested. Which MIC did it give?
A: The MIC was 4 µg/mL (≈ 5.99 µM).

Q: With `CC/C=C/[C@@H](O)C[C@H](O)CC(O)[C@@H](O)[C@H](O)[C@H](C)/C(Cl)=C/C=C/C=C(C)/C=C/C=C/C(=O)O[C@@H]1C[C@@H](C(=O)O)CC[C@@H]1O` (stereo partly drawn) [Compound 11] as the compound, how does the MIC read?
A: Its MIC is 8 µg/mL (≈ 12.8 µM).

Q: Which MIC does the source give for `CC/C=C/[C@@H](O)C[C@H](O)CC(O)C[C@H](O)[C@H](C)/C=C/C=C/C=C(C)/C=C/C=C/C(=O)O[C@@H]1C[C@@H](C(=O)O)CC[C@@H]1O` (stereo partly drawn) [Compound 12] here?
A: The MIC was > 64 µg/mL.

Q: With `CC/C=C/[C@@H](OC(N)=O)[C@@H](Cl)[C@H](O)CC(=O)[C@@H](O)[C@H](O)[C@H](C)/C(Cl)=C/C=C/C=C(C)/C=C/C=C/C(=O)O[C@@H]1C[C@H](C(=O)O)CC[C@H]1O` [Compound 17] as the compound, how does the MIC read?
A: Its MIC is 2 µg/mL (≈ 2.85 µM).

Q: How did the MIC turn out when `CC/C=C/[C@@H](OC(N)=O)[C@@H](Cl)[C@H](O)CC(=O)[C@@H](O)[C@H](O)[C@H](C)/C(Cl)=C/C=C/C=C(C)/C=C/C=C/C(=O)N[C@H]1CCC[C@H](C(=O)O)C1` [Compound 21] was run?
A: Its MIC is 8 µg/mL (≈ 11.7 µM).

Q: Which MIC does the source give for `CC/C=C/[C@@H](OC(N)=O)[C@@H](Cl)[C@H](O)CC(=O)[C@@H](O)[C@H](O)[C@H](C)/C(Cl)=C/C=C/C=C(C)/C=C/C=C/C(=O)O[C@H]1CCC[C@H](C(=O)O)C1` [Compound 22] here?
A: Its MIC is 4 µg/mL (≈ 5.83 µM).

Q: How did the MIC turn out when `CC/C=C/[C@@H](OC(N)=O)[C@@H](Cl)[C@H](O)CC(=O)[C@@H](O)[C@H](O)[C@H](C)/C(Cl)=C/C=C/C=C(C)/C=C/C=C/C(=O)O[C@@H]1CC(C(=O)O)=CC[C@@H]1O` [Compound 28, Δ5912-14 unsaturated enacyloxin analogue] was run?
A: The MIC was 0.5 µg/mL (≈ 0.714 µM).

Q: For `CC/C=C/[C@@H](O)[C@@H](Cl)[C@H](O)C[C@@H](O)[C@@H](O)[C@H](O)[C@H](C)/C(Cl)=C/C=C/C=C(C)/C=C/C=C/C(=O)O[C@@H]1CC(C(=O)O)=CC[C@@H]1O` [Compound 29, Δ5930/32/12-14 unsaturated enacyloxin analogue], which MIC is on record?
A: The MIC was 1 µg/mL (≈ 1.52 µM).

Q: For `CC/C=C/[C@@H](OC(N)=O)[C@@H](Br)[C@H](O)CC(=O)[C@@H](O)[C@H](O)[C@H](C)/C(Br)=C/C=C/C=C(C)/C=C/C=C/C(=O)O[C@@H]1C[C@@H](C(=O)O)CC[C@@H]1O` [Compound 30], which MIC is on record?
A: The MIC was 1 µg/mL (≈ 1.26 µM).

Q: With `CC/C=C/[C@@H](OC(N)=O)[C@@H](Cl)[C@H](O)CC(=O)[C@@H](O)[C@H](O)[C@H](C)/C(Br)=C/C=C/C=C(C)/C=C/C=C/C(=O)O[C@@H]1C[C@@H](C(=O)O)CC[C@@H]1O` [Compound 31] as the compound, how does the MIC read?
A: The MIC was 2 µg/mL (≈ 2.68 µM).

Q: With `CC/C=C/[C@H](C[C@H](O)CC(=O)[C@@H](O)[C@H](O)[C@H](C)/C(Br)=C/C=C/C=C(C)/C=C/C=C/C(=O)O[C@@H]1C[C@@H](C(=O)O)CC[C@@H]1O)OC(N)=O` [Compound 32] as the compound, how does the MIC read?
A: Its MIC is 16 µg/mL (≈ 22.5 µM).

Q: For `CC/C=C/[C@@H](O)[C@@H](Br)[C@H](O)CC(O)[C@@H](O)[C@H](O)[C@H](C)/C(Br)=C/C=C/C=C(C)/C=C/C=C/C(=O)O[C@@H]1C[C@@H](C(=O)O)CC[C@@H]1O` (stereo partly drawn) [Compound 33], which MIC is on record?
A: Its MIC is 1 µg/mL (≈ 1.33 µM).

Q: `CC/C=C/[C@@H](O)C[C@H](O)CC(O)[C@@H](O)[C@H](O)[C@H](C)/C(Br)=C/C=C/C=C(C)/C=C/C=C/C(=O)O[C@@H]1C[C@@H](C(=O)O)CC[C@@H]1O` (stereo partly drawn) [Compound 35] was tested. Which MIC did it give?
A: The MIC was 32 µg/mL (≈ 47.6 µM).

Same assay, conditions: multi-drug resistant A. baumannii strains; broth microdilution in MH broth, 18 h at 37° C.

Q: For 18-dechloro-enacyloxin IIa [Compound 2], which “MIC against A. baumannii” value is on record?
A: The value was 4 µg/mL.
